Assay results taken from ChEMBL document CHEMBL1201862, “PubChem BioAssay data set” (2004).
Each block holds one molecule with its values, some of them ahead of it. Activity calls are given as the source filed them.

Tests used:
BJ [1] = assay: BJ-TERT fibroblast viability loss – cell-based, RAS-independent, luminescence, dose response (AID 1933); format: functional; details: Homo sapiens
BJ [2] = assay: cells; format: functional, cell-based; details: Homo sapiens
[3] = viability of PTEN-deleted HCT116 cells – cell-based, HCT116 PTEN knockout, dose response (AID 1047); format: functional;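 note: HCT116 colon tumor cells with PTEN knocked out; cells exposed to compound for 60 hours before readout; potency for loss of cell viability measured by luminescence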
BJ [4] = assay: BJ-TERT-LT-ST fibroblast viability loss – cell-based, RAS-independent, luminescence, dose response (AID 1935); format: functional; details: Homo sapiens;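 note: BJ fibroblasts immortalized with TERT plus LT and ST oncogenes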
[5] = DRD fibroblast viability loss – cell-based, non-viral oncogenic, luminescence, dose response (AID 1934); format: functional; details: Homo sapiens
[6] = biological target: C-C chemokine receptor type 6 (Homo sapiens, UniProt P51684); assay: antagonism of CCR6 beta-arrestin recruitment – cell-based, luminescent beta-arrestin readout, dose response (AID 504728); format: functional
Beta-galactosidase = Beta-galactosidase (Escherichia coli, UniProt Q8VNN2); assay: detection-enzyme interference by beta-gal modulators – biochemical, E. coli enzyme, set 3, artefact control for CCR6 antagonist project, dose response (AID 504712); format: functional
[7] = biological target: Ribosomal protein S6 kinase alpha-3 (Homo sapiens, UniProt P51812); format: functional;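 note: measured within a kinome-wide profiling panel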
[8] = biological target: Protein kinase C zeta type (Homo sapiens, UniProt Q05513); format: functional;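 note: measured as one member of a broad kinase profiling panel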
[9] = biological target: RAC-gamma serine/threonine-protein kinase (Homo sapiens, UniProt Q9Y243); format: functional
[10] = biological target: Protein kinase C delta type (Homo sapiens, UniProt Q05655); format: functional
[11] = biological target: Serine/threonine-protein kinase D2 (Homo sapiens, UniProt Q9BZL6); format: functional;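 note: measured against PRKD2 as one member of a kinome-wide kinase profiling panel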
[12] = biological target: Serine/threonine-protein kinase Chk2 (Homo sapiens, UniProt O96017); format: functional;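 note: CHEK2 entry within a kinome-wide screening panel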
SRSF protein kinase 1 = SRSF protein kinase 1 (Homo sapiens, UniProt Q96SB4); format: functional;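 note: measured as one member of a kinome-wide kinase profiling panel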
[13] = biological target: Serine/threonine-protein kinase pim-1 (Homo sapiens, UniProt P11309); format: functional
[14] = biological target: MAP kinase-activated protein kinase 2 (Homo sapiens, UniProt P49137); format: functional;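 note: measured as one member of a kinome-wide kinase panel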
[15] = biological target: Mast/stem cell growth factor receptor Kit (Homo sapiens, UniProt P10721); format: functional;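 note: KIT entry within a kinase panel assay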
Chain of Mast/stem cell growth factor receptor Kit (P10721 whole entry): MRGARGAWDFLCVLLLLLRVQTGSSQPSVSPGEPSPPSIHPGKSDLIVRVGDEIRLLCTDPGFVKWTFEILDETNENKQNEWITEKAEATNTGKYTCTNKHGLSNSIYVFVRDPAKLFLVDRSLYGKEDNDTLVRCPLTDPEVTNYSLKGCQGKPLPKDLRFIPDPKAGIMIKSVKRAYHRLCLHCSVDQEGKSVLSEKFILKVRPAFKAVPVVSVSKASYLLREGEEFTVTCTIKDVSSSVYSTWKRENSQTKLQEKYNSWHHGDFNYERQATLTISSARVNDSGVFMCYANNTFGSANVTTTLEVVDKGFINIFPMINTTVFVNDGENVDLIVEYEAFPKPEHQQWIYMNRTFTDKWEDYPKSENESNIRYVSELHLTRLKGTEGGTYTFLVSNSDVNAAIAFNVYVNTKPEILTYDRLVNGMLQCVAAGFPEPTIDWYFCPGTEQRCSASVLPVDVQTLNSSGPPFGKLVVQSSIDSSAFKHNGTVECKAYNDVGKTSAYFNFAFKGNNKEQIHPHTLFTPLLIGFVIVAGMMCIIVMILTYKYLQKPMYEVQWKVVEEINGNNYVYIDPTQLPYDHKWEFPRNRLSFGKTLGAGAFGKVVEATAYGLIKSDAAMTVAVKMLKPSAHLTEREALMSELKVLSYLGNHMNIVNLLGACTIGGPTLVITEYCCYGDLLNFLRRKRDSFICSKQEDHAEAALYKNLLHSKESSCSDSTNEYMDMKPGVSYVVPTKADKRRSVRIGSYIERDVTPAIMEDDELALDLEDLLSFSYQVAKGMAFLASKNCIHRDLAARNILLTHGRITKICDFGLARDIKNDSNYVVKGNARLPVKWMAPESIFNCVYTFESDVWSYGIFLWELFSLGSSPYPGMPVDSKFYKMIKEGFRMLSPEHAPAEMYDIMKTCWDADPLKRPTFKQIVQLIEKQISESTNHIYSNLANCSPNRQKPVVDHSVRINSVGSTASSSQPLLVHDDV

[16] = biological target: Serine/threonine-protein kinase PAK 1 (Homo sapiens, UniProt Q13153); format: functional
[17] = biological target: Casein kinase I isoform gamma-1 (Homo sapiens, UniProt Q9HCP0); format: functional;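 note: measured as the CSNK1G1 member of a kinome profiling panel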
[18] = biological target: Ribosomal protein S6 kinase alpha-5 (Homo sapiens, UniProt O75582); format: functional
[19] = biological target: Mitogen-activated protein kinase 9 (Homo sapiens, UniProt P45984); format: functional;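 note: value from a kinome panel profiling assay, MAPK9 panel entry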
[20] = biological target: Serine/threonine-protein kinase TAO1 (Homo sapiens, UniProt Q7L7X3); format: functional
[21] = biological target: Proto-oncogene tyrosine-protein kinase ROS (Homo sapiens, UniProt P08922); format: functional;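 note: ROS1 tested as one member of a kinome-wide kinase panel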
Chain of Proto-oncogene tyrosine-protein kinase ROS (P08922 whole entry): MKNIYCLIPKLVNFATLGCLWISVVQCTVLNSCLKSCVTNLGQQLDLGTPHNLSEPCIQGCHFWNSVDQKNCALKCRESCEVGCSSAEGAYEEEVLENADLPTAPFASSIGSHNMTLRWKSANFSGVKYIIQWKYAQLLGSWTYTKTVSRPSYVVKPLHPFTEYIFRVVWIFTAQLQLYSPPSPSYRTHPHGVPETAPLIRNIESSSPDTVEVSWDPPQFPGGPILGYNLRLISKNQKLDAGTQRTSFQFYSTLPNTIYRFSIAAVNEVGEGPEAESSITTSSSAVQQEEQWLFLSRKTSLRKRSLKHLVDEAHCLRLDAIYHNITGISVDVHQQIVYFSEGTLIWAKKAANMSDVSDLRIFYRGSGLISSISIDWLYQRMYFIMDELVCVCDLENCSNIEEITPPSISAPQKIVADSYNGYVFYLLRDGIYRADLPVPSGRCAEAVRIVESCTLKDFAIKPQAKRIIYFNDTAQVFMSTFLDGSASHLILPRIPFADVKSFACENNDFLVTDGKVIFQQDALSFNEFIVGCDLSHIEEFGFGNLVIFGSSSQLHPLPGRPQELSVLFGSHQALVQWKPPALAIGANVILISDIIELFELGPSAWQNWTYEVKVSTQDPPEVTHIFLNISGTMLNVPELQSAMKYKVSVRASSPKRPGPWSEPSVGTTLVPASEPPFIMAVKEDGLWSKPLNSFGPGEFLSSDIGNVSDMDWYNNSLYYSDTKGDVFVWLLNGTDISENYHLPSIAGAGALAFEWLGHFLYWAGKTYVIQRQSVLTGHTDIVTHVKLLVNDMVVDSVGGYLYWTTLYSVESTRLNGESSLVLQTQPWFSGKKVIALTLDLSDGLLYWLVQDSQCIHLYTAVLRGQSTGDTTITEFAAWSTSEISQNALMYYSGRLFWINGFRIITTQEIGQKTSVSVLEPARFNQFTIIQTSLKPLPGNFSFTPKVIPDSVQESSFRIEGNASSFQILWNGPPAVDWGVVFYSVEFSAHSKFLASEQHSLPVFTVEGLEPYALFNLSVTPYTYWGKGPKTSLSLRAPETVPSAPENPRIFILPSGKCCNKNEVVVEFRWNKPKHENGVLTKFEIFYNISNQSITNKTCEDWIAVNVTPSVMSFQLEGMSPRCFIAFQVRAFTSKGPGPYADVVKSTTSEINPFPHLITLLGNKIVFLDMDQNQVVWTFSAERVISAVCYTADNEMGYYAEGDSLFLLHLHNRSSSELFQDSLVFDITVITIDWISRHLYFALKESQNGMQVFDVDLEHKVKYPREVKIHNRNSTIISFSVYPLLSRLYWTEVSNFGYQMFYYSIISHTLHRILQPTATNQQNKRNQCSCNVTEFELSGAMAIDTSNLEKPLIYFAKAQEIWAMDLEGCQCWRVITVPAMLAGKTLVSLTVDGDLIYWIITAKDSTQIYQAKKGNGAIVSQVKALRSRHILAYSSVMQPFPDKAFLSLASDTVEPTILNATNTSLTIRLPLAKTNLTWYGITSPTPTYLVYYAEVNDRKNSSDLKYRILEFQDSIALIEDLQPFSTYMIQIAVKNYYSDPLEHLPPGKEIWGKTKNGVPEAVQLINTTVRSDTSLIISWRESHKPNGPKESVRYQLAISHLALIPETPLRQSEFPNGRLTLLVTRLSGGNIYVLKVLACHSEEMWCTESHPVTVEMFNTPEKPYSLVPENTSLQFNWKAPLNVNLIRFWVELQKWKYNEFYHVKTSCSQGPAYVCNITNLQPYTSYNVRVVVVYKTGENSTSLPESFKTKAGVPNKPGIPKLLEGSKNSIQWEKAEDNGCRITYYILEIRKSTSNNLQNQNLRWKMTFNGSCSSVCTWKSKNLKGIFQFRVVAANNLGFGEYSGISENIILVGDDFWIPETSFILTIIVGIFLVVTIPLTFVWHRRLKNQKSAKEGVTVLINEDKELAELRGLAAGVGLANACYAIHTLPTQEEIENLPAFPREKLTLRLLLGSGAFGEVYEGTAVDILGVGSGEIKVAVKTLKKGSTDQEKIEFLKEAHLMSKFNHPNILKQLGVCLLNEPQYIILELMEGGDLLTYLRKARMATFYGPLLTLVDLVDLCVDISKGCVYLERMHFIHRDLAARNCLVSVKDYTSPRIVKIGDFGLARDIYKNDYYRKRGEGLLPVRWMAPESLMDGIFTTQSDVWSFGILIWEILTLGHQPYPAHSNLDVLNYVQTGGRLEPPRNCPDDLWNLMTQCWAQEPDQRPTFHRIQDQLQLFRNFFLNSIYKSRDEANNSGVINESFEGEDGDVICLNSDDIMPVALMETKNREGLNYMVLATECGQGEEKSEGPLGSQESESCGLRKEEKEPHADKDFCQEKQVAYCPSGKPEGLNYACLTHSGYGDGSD

[22] = biological target: Non-receptor tyrosine-protein kinase TYK2 (Homo sapiens, UniProt P29597); format: functional
[23] = biological target: Glycogen synthase kinase-3 alpha (Homo sapiens, UniProt P49840); format: functional;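 note: GSK3A result taken from a broad kinome-wide kinase panel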
[24] = biological target: Hepatocyte growth factor receptor (Homo sapiens, UniProt P08581); format: functional;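 note: kinase panel profiling across the kinome, with MET as the panel member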
Chain of Hepatocyte growth factor receptor (P08581 whole entry): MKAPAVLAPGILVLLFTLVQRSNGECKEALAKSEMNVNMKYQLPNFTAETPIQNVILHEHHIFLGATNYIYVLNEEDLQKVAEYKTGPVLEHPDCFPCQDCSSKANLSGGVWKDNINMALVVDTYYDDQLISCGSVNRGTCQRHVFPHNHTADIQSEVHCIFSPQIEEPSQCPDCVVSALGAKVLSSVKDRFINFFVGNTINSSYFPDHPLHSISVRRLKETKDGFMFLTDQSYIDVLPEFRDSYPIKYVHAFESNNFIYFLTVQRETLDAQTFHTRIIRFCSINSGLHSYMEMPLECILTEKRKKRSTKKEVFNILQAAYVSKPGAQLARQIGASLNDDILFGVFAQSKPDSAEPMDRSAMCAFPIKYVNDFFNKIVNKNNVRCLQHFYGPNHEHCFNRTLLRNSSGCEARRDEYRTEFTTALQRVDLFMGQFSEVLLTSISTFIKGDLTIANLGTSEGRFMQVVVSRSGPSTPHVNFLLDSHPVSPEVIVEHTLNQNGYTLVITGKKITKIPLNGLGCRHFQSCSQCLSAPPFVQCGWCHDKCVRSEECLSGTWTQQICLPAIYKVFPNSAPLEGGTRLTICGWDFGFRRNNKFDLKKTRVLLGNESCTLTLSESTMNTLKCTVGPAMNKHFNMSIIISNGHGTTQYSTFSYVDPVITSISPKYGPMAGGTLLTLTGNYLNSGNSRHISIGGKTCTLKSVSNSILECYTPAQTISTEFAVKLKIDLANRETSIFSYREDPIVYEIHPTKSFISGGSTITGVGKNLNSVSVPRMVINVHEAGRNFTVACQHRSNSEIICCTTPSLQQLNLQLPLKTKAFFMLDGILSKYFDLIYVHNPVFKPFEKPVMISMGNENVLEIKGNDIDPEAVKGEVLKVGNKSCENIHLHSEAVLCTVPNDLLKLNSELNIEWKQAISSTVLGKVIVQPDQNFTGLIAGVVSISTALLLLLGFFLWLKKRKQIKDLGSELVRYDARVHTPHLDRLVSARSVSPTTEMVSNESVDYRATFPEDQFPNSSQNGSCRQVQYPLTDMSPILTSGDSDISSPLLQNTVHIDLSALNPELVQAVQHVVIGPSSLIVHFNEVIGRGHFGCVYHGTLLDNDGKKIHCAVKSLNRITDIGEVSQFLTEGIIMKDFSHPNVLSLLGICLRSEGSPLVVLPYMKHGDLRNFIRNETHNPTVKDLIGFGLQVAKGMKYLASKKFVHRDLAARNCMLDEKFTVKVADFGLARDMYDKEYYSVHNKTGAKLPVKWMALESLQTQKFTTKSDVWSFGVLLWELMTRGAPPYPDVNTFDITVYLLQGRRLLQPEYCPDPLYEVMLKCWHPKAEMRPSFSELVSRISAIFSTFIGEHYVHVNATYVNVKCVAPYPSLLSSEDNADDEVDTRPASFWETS

[25] = biological target: Receptor tyrosine-protein kinase erbB-2 (Homo sapiens, UniProt P04626); assay: Navigating the Kinome. Panel member name: ERBB2; format: functional
[26] = biological target: Serine/threonine-protein kinase Nek4 (Homo sapiens, UniProt P51957); format: functional
Aurora kinase B = Aurora kinase B (Homo sapiens, UniProt Q96GD4); format: functional
Chain of Aurora kinase B (Q96GD4 whole entry): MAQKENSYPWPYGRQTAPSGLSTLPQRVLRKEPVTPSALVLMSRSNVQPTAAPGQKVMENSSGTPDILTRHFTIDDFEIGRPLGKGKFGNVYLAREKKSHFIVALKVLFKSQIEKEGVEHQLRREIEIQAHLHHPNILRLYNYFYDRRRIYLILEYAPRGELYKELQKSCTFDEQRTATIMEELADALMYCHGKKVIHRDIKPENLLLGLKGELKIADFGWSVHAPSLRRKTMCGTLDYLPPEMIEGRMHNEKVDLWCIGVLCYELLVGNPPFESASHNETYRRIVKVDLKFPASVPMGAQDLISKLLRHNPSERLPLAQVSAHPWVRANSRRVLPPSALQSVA

[27] = biological target: Calcium/calmodulin-dependent protein kinase type 1 (Homo sapiens, UniProt Q14012); format: functional
[28] = biological target: STE20-like serine/threonine-protein kinase (Homo sapiens, UniProt Q9H2G2); format: functional
[29] = biological target: Fibroblast growth factor receptor 3 (Homo sapiens, UniProt P22607); format: functional
[30] = biological target: Glycogen synthase kinase-3 beta (Homo sapiens, UniProt P49841); format: functional;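 note: value comes from a broad kinome profiling panel, with GSK3B as the panel member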
[31] = biological target: Mitogen-activated protein kinase 12 (Homo sapiens, UniProt P53778); format: functional;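 note: measured as one member of a kinome-wide kinase profiling panel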
[32] = biological target: Macrophage colony-stimulating factor 1 receptor (Homo sapiens, UniProt P07333); format: functional;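 note: value comes from the Navigating the Kinome screening panel, CSF1R member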
Aspartyl aminopeptidase = Aspartyl aminopeptidase (Plasmodium falciparum 3D7, UniProt Q8I2J3)
Ephrin type-A receptor 4 = Ephrin type-A receptor 4 (Mus musculus, UniProt Q03137); assay: EphA4 ligand-binding antagonists – biochemical, colorimetric, mouse EphA4, primary screen (AID 689); format: functional
[33] = biological target: T1, Alkaline phosphatase, tissue-nonspecific isozyme (Homo sapiens, UniProt P05186); assay: activation of tissue-nonspecific alkaline phosphatase – biochemical, TNAP isozyme, mouse IAP uHTS hits, selectivity assay for mouse IAP activator project, dose response (AID 488880); format: functional
T1 sequence (P05186 whole entry): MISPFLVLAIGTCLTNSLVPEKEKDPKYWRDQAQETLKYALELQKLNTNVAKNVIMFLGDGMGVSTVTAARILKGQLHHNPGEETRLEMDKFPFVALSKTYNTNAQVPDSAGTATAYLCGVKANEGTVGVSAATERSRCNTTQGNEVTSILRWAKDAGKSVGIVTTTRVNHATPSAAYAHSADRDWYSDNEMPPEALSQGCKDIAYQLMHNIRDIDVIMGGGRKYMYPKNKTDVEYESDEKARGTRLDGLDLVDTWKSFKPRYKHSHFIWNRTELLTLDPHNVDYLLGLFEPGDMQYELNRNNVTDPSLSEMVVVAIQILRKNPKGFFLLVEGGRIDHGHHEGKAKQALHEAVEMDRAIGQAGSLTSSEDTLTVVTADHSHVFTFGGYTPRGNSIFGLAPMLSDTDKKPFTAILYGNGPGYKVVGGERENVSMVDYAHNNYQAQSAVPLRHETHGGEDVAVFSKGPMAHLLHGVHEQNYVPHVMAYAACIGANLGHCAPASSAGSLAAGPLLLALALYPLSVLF

[34] = biological target: RNA-editing ligase 1, mitochondrial (Trypanosoma brucei brucei, UniProt P86926); assay: inhibition of trypanosome RNA editing ligase – biochemical, fluorescence, Trypanosoma brucei, dose response (AID 1117295); format: functional

Structure (SMILES): Cc1ccc(NC2=C/C(=N\S(=O)(=O)c3cccs3)c3ccccc3C2=O)c(C)c1
- EC50 (BJ [1]): 2.51 µM (active)
- EC50 (BJ [2]): 4.15 µM (active)
- EC50 [3]: 1.1 µM (active)
- EC50 (BJ [4]): 4.42 µM (inconclusive)
- EC50 [5]: 5.14 µM (active)
- IC50 [6]: > 66.6 µM (inactive)
- IC50 (Beta-galactosidase): > 66.6 µM (inactive)

- Ki [7]: 0.0398 µM (active)
- Ki [8]: > 7.94 µM (inactive)
- Ki [9]: > 10 µM (inactive)
- Ki [10]: 1.26 µM (active)
- Ki [11]: 0.0501 µM (active)
- Ki [12]: 0.158 µM (active)
- Ki (SRSF protein kinase 1): 1 µM (active)
- Ki [13]: 1.58 µM (active)
- Ki [14]: 1.26 µM (active)
- Ki [15]: > 1.26 µM (inactive)
- Ki [16]: 2 µM (active)
- Ki [17]: 2.51 µM (active)
- Ki [18]: 0.794 µM (active)
- Ki [19]: 0.126 µM (active)
- Ki [20]: 1.58 µM (active)
- Ki [21]: > 2 µM (inactive)
- Ki [22]: 0.251 µM (active)
- Ki [23]: 0.00398 µM (active)
- Ki [24]: 0.2 µM (active)
- Ki [25]: > 1.58 µM (inactive)
- Ki [26]: 0.501 µM (active)
- Ki (Aurora kinase B): 0.00398 µM (active)
- Ki [27]: > 1.26 µM (inactive)
- Ki [28]: 0.126 µM (active)
- Ki [29]: 0.0126 µM (active)
- Ki [30]: 0.00316 µM (active)
- Ki [31]: 3.16 µM (active)
- Ki [32]: 0.251 µM (active)
Structure (SMILES): O=C1Nc2ccc3ncsc3c2C1=CNc1ccc(S(=O)(=O)Nc2ccccn2)cc1

Structure (SMILES): Oc1ccc(-c2cn3c(n2)SCC3)cc1O
- IC50 (Aspartyl aminopeptidase): 1.55 µM (active)
- IC50 (Ephrin type-A receptor 4): 42.3 µM (active)
- EC50 [33]: 70.9 µM (active)
- IC50 [34]: > 96.6 µM (inactive)
